# PMC7235712, “Biological Activities of Essential Oils from Leaves of Paramignya trimera (Oliv.) Guillaum and Limnocitrus littoralis (Miq.) Swingle” (Antibiotics, 2020)
# Assays:
# RSV = test: Plaque reduction in Vero-76 monolayers, RSV; assay type: cell-based; conditions: human respiratory syncytial virus, reference compound
# in vitro [1] = conditions: African green monkey (Cercopithecus aethiops)
# Reo-1 = test: microbe, parasite or virus in culture; assay type: cell-based, reovirus type-1; conditions: Reovirus sp., BHK, read-out: EC50 Reo-1
# in vitro [2] = conditions: Syrian hamster (Mesocricetus auratus)
# S. aureus = conditions: β-caryophyllene from Aquilaria crassna essential oil; cited from earlier work
# HSV-1 = test: Plaque reduction in Vero-76 monolayers, HSV-1; assay type: cell-based, human herpes virus 1; conditions: Human alphaherpesvirus 1, reference compound
# in vitro [3] = conditions: human
# HIV-1IIIB = test: microbe, parasite or virus in culture; assay type: cell-based, human immunodeficiency virus type-1; conditions: Human immunodeficiency virus 1, MT4, read-out: EC50 HIV-1IIIB
# CV-B4 = test: Plaque reduction in Vero-76 monolayers, CV-B4; assay type: cell-based, human enterovirus B (coxsackie virus B4); conditions: Enterovirus B, CVB4, reference compound
# Sb-1 = test: microbe, parasite or virus in culture; assay type: cell-based, human enterovirus C (polio virus type-1); conditions: Enterovirus C, Vero 76, read-out: EC50 Sb-1
# BVDV = test: microbe, parasite or virus in culture; assay type: cell-based, bovine viral diarrhoea virus; conditions: Bovine viral diarrhea virus isolates and strains, MDBK, in Bos taurus, read-out: EC50 BVDV
# in vitro [4] = conditions: cattle (Bos taurus)
# YFV = test: microbe, parasite or virus in culture; assay type: cell-based; conditions: Yellow fever virus, BHK, read-out: EC50 YFV
structure (smiles),measurement,setting,value
"O=c1cnn([C@@H]2O[C@H](CO)[C@@H](O)[C@H]2O)c(=O)[nH]1 [RC4, 6-aza-uridine]",EC50,RSV,2000 ± 200 nM
same,CC50,in vitro [1],≥ 14000 nM
"C[C@@]1(O)[C@H](O)[C@@H](CO)O[C@H]1n1ccc(N)nc1=O [RC7, 2′-C-methylcytidine]",EC50,Reo-1,17000 nM
same,CC50,in vitro [2],> 100000 nM
C=C1CC/C=C(\C)CC[C@@H]2[C@@H]1CC2(C)C [β-caryophyllene],MIC,S. aureus,3 ± 0.4 µM
"COc1c(C)c2c(c(O)c1C/C=C(\C)CCC(=O)O)C(=O)OC2 [RC6, Mycophenolic acid]",CC50,in vitro [1],> 100000 nM
"Nc1nc2c(ncn2COCCO)c(=O)[nH]1 [RC5, Acycloguanosine]",EC50,HSV-1,3000 ± 100 nM
same,CC50,in vitro [1],> 100000 nM
"O=C1Nc2ccc(Cl)cc2[C@@](C#CC2CC2)(C(F)(F)F)O1 [RC1, Efavirenz]",CC50,in vitro [3],40000 nM
same,EC50,HIV-1IIIB,3 ± 0.3 nM
"Cc1cc(CCCOc2c(C)cc(-c3noc(C(F)(F)F)n3)cc2C)on1 [RC3, Pleconaril]",EC50,CV-B4,2000 ± 500 nM
same,CC50,in vitro [1],> 100000 nM
same,EC50,Sb-1,2000 nM
"C[C@@]1(O)[C@H](O)[C@@H](CO)O[C@H]1n1cnc2c(=O)[nH]c(N)nc21 [RC2, 2′-C-methylguanosine]",EC50,BVDV,1700 ± 300 nM
same,CC50,in vitro [4],> 100000 nM
same,EC50,YFV,1400 ± 200 nM
same,CC50,in vitro [2],80000 nM
